Where a name gives a salt, the structure may show the parent alone.
Target: human recombinant 5-HT2A receptor (Homo sapiens (Human), UniProt P28223)
Assay: Determination of Ki value at 5-HT2A receptor ([3H]-Ketanserine radioligand binding)
Experimental: Determination of Ki Value at 5-HT2A Receptor
Compound was tested according to the following procedures.
Receptor source: Recombinant mammalian cells
Radioligand: [^3H]-Ketanserine (47.3 Ci/mmol)
Final ligand concentration—[1.75 nM]
Non-Specific Ligand: 0.1 mM 1-Naphthylpiperazine (1-NP)
Reference compound: 1-Naphthylpiperazine (1-NP)
Positive control: 1-Naphthylpiperazine (1-NP)
Incubation conditions: Reactions were carried out in 67 mM Tris-HCl (pH 7.4) for 1 hour at 37° C. The reaction was terminated by rapid vacuum filtration onto the glass fiber filters. Radioactivity trapped onto the filters was determined and compared to the control values in order to ascertain any interactions of the test compound(s) with the cloned serotonin 5-HT2A binding site. Reference: Methods in Molecular Biology, 2002, 190, 31-49 Results:
. The Ki values tabulated below are average of three independent experiments.

Question: `COc1ccc2c(c1)c(CN1CCN(C)CC1)cn2S(=O)(=O)c1ccc(F)cc1` [Compound 2, 1-[(4-Fluorophenyl)sulfonyl]-5-methoxy-3-[(4-methyl-1-piperazinyl)methyl]-1H-indole dihydrochloride] was tested. Which Ki did it give?
Answer: > 10 µM

— patent US11253514B2, “Triple combination of pure 5-HT6 receptor antagonists, acetylcholinesterase inhibitors and NMDA receptor antagonist” (priority 2016, dated 2022)
